Measured values taken from PubChem BioAssay (NCI).
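Step 1: Grow cells in 96-well plates. Step 2: Expose to compound for 48 hours at 5 concentrations. Step 3: Interpolate endpoints linearly; if unreached, use highest concentration. At the GI50, growth is halved. TGI is the concentration that stops growth completely.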

Tests used:
Test in all cases: NCI anticancer screen, dose series, 48 h
EKVX NSCLC = system: EKVX NSCLC
LOX IMVI melanoma = system: LOX IMVI melanoma
MALME-3M melanoma = system: MALME-3M melanoma
MDA-MB-435 = system: MDA-MB-435
NCI-H522 lung = system: NCI-H522 lung
SF-539 CNS = system: SF-539 CNS
SK-OV-3 ovarian = system: SK-OV-3 ovarian
SW-620 colon = system: SW-620 colon
TK-10 renal = system: TK-10 renal
UACC-257 melanoma = system: UACC-257 melanoma

SMILES	GI50 (EKVX NSCLC) [µM]	TGI (EKVX NSCLC) [µM]	GI50 (LOX IMVI melanoma) [µM]	TGI (LOX IMVI melanoma) [µM]	GI50 (MALME-3M melanoma) [µM]	TGI (MALME-3M melanoma) [µM]	GI50 (MDA-MB-435) [µM]	TGI (MDA-MB-435) [µM]	GI50 (NCI-H522 lung) [µM]	TGI (NCI-H522 lung) [µM]	GI50 (SF-539 CNS) [µM]	TGI (SF-539 CNS) [µM]	GI50 (SK-OV-3 ovarian) [µM]	TGI (SK-OV-3 ovarian) [µM]	GI50 (SW-620 colon) [µM]	TGI (SW-620 colon) [µM]	GI50 (TK-10 renal) [µM]	TGI (TK-10 renal) [µM]	GI50 (UACC-257 melanoma) [µM]	TGI (UACC-257 melanoma) [µM]
CCCNC(=S)N/N=C(\C)c1ccccn1	0.119	> 100	0.0436	> 100	2.11	> 100	0.53	> 100	3.22	> 100	0.847	> 30.9	0.615	> 100	0.0498	> 100	0.71	> 100	0.038	1.38
COc1ccc(S(=O)(=O)N(Cc2ccc3c(n2)C=CC(C)(C)O3)C2CCC2)cc1OC			< 0.01	0.176	< 0.01	0.0209	< 0.01	0.422	< 0.01	0.0768	< 0.01	0.378	< 0.01	< 0.01	< 0.01	> 35.1	< 0.01	1.59	< 0.0105	0.239
COC(=O)[C@]12CCC(C)(C)C[C@H]1C1=CC[C@@H]3[C@@]4(C)C/C(=C/c5cccnc5)C(=O)C(C)(C)[C@@H]4CC[C@@]3(C)[C@]1(C)CC2	10.9	31.1	4.63	17.8	5.24	18.2	5.05	20	8.58	28.7	7.43	20.7	27.5	> 100	5.74	33.3	21.4	55.5	12.5	42.8
O=C(CCCSc1nc(-c2ccc(Cl)cc2)cc(-c2ccc(Cl)cc2)n1)NO	1.14	12.7	0.222	1.44	2.25	11.6	2.81	17	1.27	8.11	1.26	4.93	2.02	11.8	0.838	11.5	0.853	17.2	2.92	18.2
COc1cccc(NCc2nnc(Nc3ccc(Cl)cc3)c3ccccc23)c1	0.588	6.4	1.11	4.84	1.22	6.23	0.739	4.38	0.302	3.31	3.07	6.56	1.13	8.19	2.98	8.13			2.04	5.28
COc1cc([N+](=O)[O-])ccc1NC(=O)C(F)(F)F		> 100		> 100				> 100		> 100		> 100		> 100		> 100		> 100		> 100
CC[C@H](C)[C@H](NC(=O)[C@H]1CCCCN1C)C(=O)N(C)[C@H](CCc1nc(C(=O)N[C@@H](Cc2ccccc2)C[C@H](C)C(=O)OC)cs1)C(C)C	1.11	> 25	0.353	> 25	3.71	> 25	0.0363	0.185	0.0446	0.143	0.464	1.53	0.797	> 25	0.213	> 25	7.35	> 25	4.43	> 25
CC(=O)[O][Hg][c]1c(C)c(C)c(C)c(C)c1C	1.89	3.54	1.29	2.82	1.24	2.62	1.5	3.09	1.41	3.02	1.66	3.25	2.69	6.04			2.03	3.72	1.73	3.45
COc1cc(Cn2c(-c3ccccc3)cc3c2-c2oncc2CC3)cc(OC)c1OC	1.39	> 100	0.831	> 100	18.4	84.4	0.248	0.905	0.294	5.99	0.735	10.3	1.53	> 100	0.42	> 100	7.7	> 100	20.2	> 100
O=C(O)C(Sc1ccc(Cl)cc1)Sc1ccc(Cl)cc1		> 100		> 100		> 100		> 100		> 100		> 100		> 100		> 100		> 100		> 100
CNC1C(=O)C(C)C(O)(C(CC(C)C(O)/C=C/C=C/CNC(=O)C(C)(C)C(O)\C(C)=C/C=C\C=C\Cc2cnc(C)o2)OC)C12C(=O)OC2COC (configuration not stated) (tested in a mixture with another compound)		> 64.4		31.5		> 87.9		> 100		21.2		67		> 100		> 46.9		> 100		> 100
COc1ccc(-c2cc3c(nn2)-c2ccccc2C3=O)cc1		> 10	> 100	> 100	> 100	> 100	> 100	> 100	> 100	> 100	> 100	> 100	> 100	> 100	72.7	> 100	> 100	> 100	> 100	> 100
NC(N)=NC(N)=Nc1cc2ccccc2c2ccccc12	12	29.1	5.15	22	7.16	22.1	12.4	25.4	5.66	21.5	10.6	23.5	11.4	24	6.5	21.4	6.08	20.5	10.5	22.9
COc1cc2c3c(n(CCCCl)c(=O)c2cc1OC)-c1ccccc1C3=O	> 100	> 100	8.83	> 100			> 100	> 100	5.31	> 100	14.1	> 100	> 100	> 100			19.6	68.6	10.2	> 100
Cn1cc(-c2csc(-c3cccc(F)c3)n2)c2cccnc21	12.5	37.6	14.1	27.5	17.6	45.5	14.4	33.1	15.9	36	15.5	30.1	24.9	62.2	16.7	30.5	17.9	38.1	21.8	42.6
COc1ccc(C2CC(=O)c3c(OC)cc(OC)cc3O2)cc1 (configuration not stated)	> 100	> 100	> 100	> 100	> 100	> 100	> 100	> 100	> 100	> 100	> 100	> 100	> 100	> 100	> 100	> 100	> 100	> 100	> 100	> 100
COc1ccc(/C(=N/Nc2ccc([N+](=O)[O-])cc2)Sc2cc(Cl)c(C)cc2S(N)(=O)=O)cc1	3.34	10.9	3.68	10.4	3.13	10.1	4.67	13.3	13.1	38.1	3.74	9.81	5.89	12.7	5.86	18.2	2.47	6.73	13	26.4
CCCCNC(=O)NS(=O)(=O)c1ccc(N2N=C(c3ccc(C)cc3C)CC2c2ccc(N(C)C)cc2)cc1 (configuration not stated)			4.4	16.5	3.08	41.7	2.55	7.59	3.25	14.8	3.22	14	8.16	> 100	4.14	> 100	5.64	> 100	4.04	> 100
Cc1cc(C)cc(Nc2cc(C)nc3nc(C(F)(F)F)nn23)c1			> 100	> 100	> 100	> 100	> 100	> 100			38.9	> 100	81.5	> 100	> 100	> 100	> 100	> 100		
COc1cccc(N=Cc2c3ccccc3c(=O)n3c2oc2ccccc23)c1	17.3	> 100	5.13	30.3			7.27	46.4	24	> 100	16.3	95.3	73.1	> 100	38	> 100	2.95	7.69		
CC(C)CC(N)C(=O)O (configuration not stated)				> 100		> 100		> 100		> 100		> 100		> 100		> 100		> 100		> 100
Cn1cc(C2=C(c3cn(C)c4c(N)cccc34)C(=O)NC2=O)c2ccccc21			1.94	> 25	9.53	> 25	0.0872	> 25	0.996	> 15	0.59	1.98	1.22	> 20.1	0.905	> 25	4.28	18.3	4.76	> 25
CCCCC/C=C/C/C=C/CCCCCCCC1=NC(C)(C)CN1C(C)C	1.3	2.73					1.5	2.82	1.72	3.17	1.82	3.3	3.07	12.6	1.6	2.99	1.67	3.04	1.72	3.2
Cc1c2c(nn1-c1ccc(S(=O)(=O)/N=C3\SCC(=O)N3C(=O)c3ccccc3)cc1)-c1ccccc1CC2	40.5	90.7	> 100	> 100			26.1	60.8	96.2	> 100					> 100	> 100	98	> 100	92.5	> 100
COc1ccc2cc(C(=O)/C=C/c3cccc(OC)c3OC)ccc2c1	17.9	36.7			10.4	29.4	5.16	29.7	10.2	29.6	11.1	26.1	23.7	45.9	9.53	29.1	25.3	65.1	15	29.8
Cn1cc(C2=C(c3cn(CCCN=C(N)N)c4ccccc34)C(=O)NC2=O)c2ccccc21			> 25	> 25	> 25	> 25	> 25	> 25	> 22.2	> 25	> 25	> 25	> 25	> 25	> 25	> 25	> 25	> 25	> 25	> 25
C[C@]12CC[C@@H]3c4ccc(O)cc4CC[C@H]3[C@@H]1CC[C@@H]2NS(=O)(=O)c1ccc(C(F)(F)F)cc1			1.68	3.06	2.03	4.37	2.12	5	1.69	3.85	1.6	2.97	2.53	6.21	3.23	10.8	3.28	8.53	2.59	7.57
